By Ki is commonly meant a measure of affinity in units of concentration, obtained from inhibition or displacement.

The target in experiment [1] is T1, Beta-3 adrenergic receptor (Homo sapiens, UniProt P13945). Nature of the experiment: Efficacy at human adrenergic beta 3 receptor transfected in CHO cells assessed as stimulation of adenylyl cyclase at 100 uM relative to isoproterenol. The experiment is classed as functional, cell-based.
Target sequence in this assay (P13945 whole entry, looked up): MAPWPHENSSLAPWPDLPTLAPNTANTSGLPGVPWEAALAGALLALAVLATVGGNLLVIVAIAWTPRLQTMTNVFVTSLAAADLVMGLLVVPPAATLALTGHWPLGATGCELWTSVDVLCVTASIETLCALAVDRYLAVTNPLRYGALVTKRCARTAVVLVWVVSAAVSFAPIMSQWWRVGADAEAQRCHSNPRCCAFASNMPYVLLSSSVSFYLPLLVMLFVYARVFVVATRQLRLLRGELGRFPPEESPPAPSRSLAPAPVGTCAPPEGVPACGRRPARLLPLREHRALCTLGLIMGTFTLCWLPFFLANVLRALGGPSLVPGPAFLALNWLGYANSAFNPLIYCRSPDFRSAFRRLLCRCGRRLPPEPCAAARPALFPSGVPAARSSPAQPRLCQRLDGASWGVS
Experiment [2] deals with Beta-1 adrenergic receptor (Homo sapiens, UniProt P08588). The experiment in a line: Displacement of [125I]CYP from human adrenergic beta 1 receptor transfected in CHO cells in presence of 100 uM GTP. The experiment is classed as cell-based.
In experiment [3] the target is Beta-2 adrenergic receptor (Homo sapiens, UniProt P07550). Nature of the experiment: Displacement of [125I]CYP from human adrenergic beta 2 receptor transfected in CHO cells in presence of 100 uM GTP. The format is cell-based.
Experiment [4] has as its target T1, Beta-3 adrenergic receptor. Nature of the experiment: Displacement of [125I]CYP from human adrenergic beta 3 receptor transfected in CHO cells in presence of 100 uM GTP. The format is cell-based. Background: In a radioligand displacement assay an active substance lowers the binding of a labelled ligand.
Target sequence in this assay (P13945 whole entry): as the sequence (P13945 whole entry, looked up) above

Chain of Beta-1 adrenergic receptor (P08588 whole entry): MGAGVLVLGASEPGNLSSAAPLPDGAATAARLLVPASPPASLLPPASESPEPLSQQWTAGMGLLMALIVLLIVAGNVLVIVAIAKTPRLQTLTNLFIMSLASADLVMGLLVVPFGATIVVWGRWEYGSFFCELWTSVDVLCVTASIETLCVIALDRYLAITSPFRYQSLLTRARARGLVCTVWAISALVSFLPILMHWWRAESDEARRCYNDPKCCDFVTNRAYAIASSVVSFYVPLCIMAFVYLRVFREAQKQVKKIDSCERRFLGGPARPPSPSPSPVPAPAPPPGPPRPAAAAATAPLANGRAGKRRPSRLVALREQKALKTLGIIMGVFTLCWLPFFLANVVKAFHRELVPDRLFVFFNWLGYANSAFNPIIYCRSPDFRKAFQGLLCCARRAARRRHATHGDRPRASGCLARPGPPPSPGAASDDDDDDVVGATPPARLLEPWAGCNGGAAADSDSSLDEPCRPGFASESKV
Chain of Beta-2 adrenergic receptor (P07550 whole entry): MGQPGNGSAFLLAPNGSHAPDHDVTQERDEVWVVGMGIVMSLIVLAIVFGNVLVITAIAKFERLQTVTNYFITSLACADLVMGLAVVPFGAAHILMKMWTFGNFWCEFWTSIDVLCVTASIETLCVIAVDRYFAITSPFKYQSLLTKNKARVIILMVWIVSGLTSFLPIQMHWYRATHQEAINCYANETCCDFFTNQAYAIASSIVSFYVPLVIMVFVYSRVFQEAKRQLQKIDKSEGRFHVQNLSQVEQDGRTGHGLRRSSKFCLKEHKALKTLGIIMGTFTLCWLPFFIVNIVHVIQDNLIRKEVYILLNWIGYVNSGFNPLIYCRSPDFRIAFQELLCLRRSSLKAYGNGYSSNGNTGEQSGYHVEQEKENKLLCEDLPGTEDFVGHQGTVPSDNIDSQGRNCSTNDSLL

Consider `CCCCOc1ccc(C[C@@H](C)NC[C@@H](O)c2cc(Br)no2)cc1`, for which the Efficacy in experiment [1] was determined as 31%. The figures for the Ki in experiment [2], in experiment [3] and in experiment [4] were 2.16 µM, 0.458 µM and 10.7 µM, respectively.

Turning to `CCOC(=O)COc1ccc(C[C@@H](C)NC[C@H](O)c2cc(Br)no2)cc1`, the Efficacy in experiment [1] was 56%. Further, the values for the Ki in experiment [2], in experiment [3] and in experiment [4] were 0.0232 µM, 0.00282 µM and 10.1 µM, respectively.

`C[C@H](Cc1ccc(OCC(=O)O)cc1)NC[C@H](O)c1cc(Br)no1`: in experiment [1], the Efficacy came out at 50%. For the same compound, the figures for the Ki in experiment [2], in experiment [3] and in experiment [4] were 0.0611 µM, 0.0139 µM and 22 µM, respectively.

Turning to `CC(C)(C)NCC(O)c1cc(NS(C)(=O)=O)no1` (racemic), the Ki in experiment [2], in experiment [3] and in experiment [4] was above 100 µM in each case.

For the compound `C[C@H](Cc1ccc(OCC(=O)O)cc1)NC[C@@H](O)c1cc(Br)no1`, in experiment [1], the Efficacy was 34%. For the same compound, the inhibition constant Ki was 6.46 µM in experiment [2], 0.501 µM in experiment [3] and above 50 µM in experiment [4].

With `C[C@H](Cc1ccc(OCC(=O)O)cc1)NC[C@H](O)c1cccc(Cl)c1` (racemic), the Ki in experiment [3] stood at 2.85 µM.

`CCOC(=O)COc1ccc(C[C@@H](C)NC[C@@H](O)c2cc(Br)no2)cc1`: the Efficacy in experiment [1] is 39%. The Ki in experiment [2] was 1.11 µM; in experiment [3], 0.0814 µM; in experiment [4], 21.8 µM.

Consider `CCCCOc1ccc(C[C@@H](C)NC[C@H](O)c2cc(Br)no2)cc1`, for which the Efficacy in experiment [1] was found to be 51%. Besides, the Ki in experiment [2] came to 0.0667 µM; in experiment [3], 0.0155 µM; in experiment [4], 2.49 µM.
